Measurements: patent US12637418B2, “Heterocyclic compounds as antagonist of NMDA” (TAKEDA PHARMACEUTICAL COMPANY LIMITED, priority 2019, dated 2026)

Target: NMDA receptor composed of four subunits including 2 sets of heterodimers of NR1 and NR2B (human GRIN1 and GRIN2B expressed in HEK293 cell) (Homo sapiens, UniProt Q13224)
Assay: NR2B Ca^2+ influx assay
Type: cell-based
Conditions: 10 μM final compound concentration; 30 μM glutamic acid and 30 μM glycine; HEK293 cells expressing GRIN1 and GRIN2B; Fluo-4 fluorescence
Description: To confirm the “antagonistic action on an NMDA receptor containing the NR2B subunit” of the compound of the present invention, human embryonic kidney cell expressing the “NMDA receptor composed of four subunits including 2 sets of heterodimers of NR1 and NR2B”, specifically HEK293 cell expressing human glutamate ionotropic receptor NMDA type subunit 1 (GRIN1) and human glutamate ionotropic receptor NMDA type subunit 2B (GRIN2B), was used and the activation suppressive effect on the receptors was measured.
HEK293 cells that express GRIN1 and GRIN2B were purchased from ChanTest (Human NMDA (NR1/NR2B) Receptor-expressing, stable replicating cell line (HEK293) catalog No. CT6121).
As an index of the NMDA receptor activation, intracellular calcium ion (Ca^2+) influx caused by the binding of glycine and glutamic acid with NR1 and NR2B, respectively, was used.
HEK293 cells that express GRIN1 and GRIN2B were cultured in DMEM/F-12 (COSMO BIO, 10-092-CM) medium added with 10% FBS (fetal bovine serum, AusGene), 100 units/mL penicillin, 100 μg/mL streptomycin, 500 μg/mL neomycin, 100 μg/mL Zeocin (registered trade mark, Invitrogen), 5 μg/mL Blasticidin in a cell culture flask in an incubator (under 37° C., 5% CO2).
The cells were detached from the flask with trypsin the day before the assay, suspended in a seeding medium (DMEM (Invitrogen, 31053) added with 10% FBS, 100 units/mL penicillin, 100 μg/mL streptomycin) at 8×10^5 cells/mL, seeded by 25 μL per well in a 384-well plate (Falcon, 356663) at 20000 cells/well, and cultured overnight in an incubator. On the day of the assay, tetracycline (Wako Pure Chemical Industries, Ltd., 209-16561) was diluted with the seeding medium at 2 μg/mL, added at 25 μL/well to the plate seeded with the cells, and cultured for 2 hr in an incubator. Thereafter, the medium was removed, and the cells were washed with 50 μL/well assay buffer (137 mM NaCl, 4 mM KCl, 1.8 mM CaCl2, 10 mM HEPES (pH 7.2), 10 mM Glucose, 0.1% BSA). Then, a loading buffer (assay buffer added with 2.5 μM Fluo-4AM, 2 mM Amaranth, 1 mM Tartrazine) was added at 25 μL/well, and the cells were incubated in the incubator for 30 min, and at room temperature for 15 min. A solution of the Example compound diluted with the above-mentioned assay buffer at 30 μM (final concentration 10 μM) was added at 25 μL/well, and the cells were left standing for 15 min at room temperature. Using FDSS7000EX/μCELL (Hamamatsu Photonics K.K.), an assay buffer containing 30 μM glutamic acid and 30 μM glycine was added at 25 μL/well, and fluorescence signals with wavelengths of Excitation 480 nm and Emission 540 nm were measured every 3 seconds for 5 min. The inhibitory activity was calculated as a relative activity value (inhibitory rate) that inhibits 100% of the cumulative value of the fluorescence value of a well added with an assay buffer free of glutamic acid, glycine, relative to the cumulative value of the fluorescence value of each well.

Sequence of NMDA receptor composed of four subunits including 2 sets of heterodimers of NR1 and NR2B (human GRIN1 and GRIN2B expressed in HEK293 cell) (Q13224 27-1484, other chains not shown): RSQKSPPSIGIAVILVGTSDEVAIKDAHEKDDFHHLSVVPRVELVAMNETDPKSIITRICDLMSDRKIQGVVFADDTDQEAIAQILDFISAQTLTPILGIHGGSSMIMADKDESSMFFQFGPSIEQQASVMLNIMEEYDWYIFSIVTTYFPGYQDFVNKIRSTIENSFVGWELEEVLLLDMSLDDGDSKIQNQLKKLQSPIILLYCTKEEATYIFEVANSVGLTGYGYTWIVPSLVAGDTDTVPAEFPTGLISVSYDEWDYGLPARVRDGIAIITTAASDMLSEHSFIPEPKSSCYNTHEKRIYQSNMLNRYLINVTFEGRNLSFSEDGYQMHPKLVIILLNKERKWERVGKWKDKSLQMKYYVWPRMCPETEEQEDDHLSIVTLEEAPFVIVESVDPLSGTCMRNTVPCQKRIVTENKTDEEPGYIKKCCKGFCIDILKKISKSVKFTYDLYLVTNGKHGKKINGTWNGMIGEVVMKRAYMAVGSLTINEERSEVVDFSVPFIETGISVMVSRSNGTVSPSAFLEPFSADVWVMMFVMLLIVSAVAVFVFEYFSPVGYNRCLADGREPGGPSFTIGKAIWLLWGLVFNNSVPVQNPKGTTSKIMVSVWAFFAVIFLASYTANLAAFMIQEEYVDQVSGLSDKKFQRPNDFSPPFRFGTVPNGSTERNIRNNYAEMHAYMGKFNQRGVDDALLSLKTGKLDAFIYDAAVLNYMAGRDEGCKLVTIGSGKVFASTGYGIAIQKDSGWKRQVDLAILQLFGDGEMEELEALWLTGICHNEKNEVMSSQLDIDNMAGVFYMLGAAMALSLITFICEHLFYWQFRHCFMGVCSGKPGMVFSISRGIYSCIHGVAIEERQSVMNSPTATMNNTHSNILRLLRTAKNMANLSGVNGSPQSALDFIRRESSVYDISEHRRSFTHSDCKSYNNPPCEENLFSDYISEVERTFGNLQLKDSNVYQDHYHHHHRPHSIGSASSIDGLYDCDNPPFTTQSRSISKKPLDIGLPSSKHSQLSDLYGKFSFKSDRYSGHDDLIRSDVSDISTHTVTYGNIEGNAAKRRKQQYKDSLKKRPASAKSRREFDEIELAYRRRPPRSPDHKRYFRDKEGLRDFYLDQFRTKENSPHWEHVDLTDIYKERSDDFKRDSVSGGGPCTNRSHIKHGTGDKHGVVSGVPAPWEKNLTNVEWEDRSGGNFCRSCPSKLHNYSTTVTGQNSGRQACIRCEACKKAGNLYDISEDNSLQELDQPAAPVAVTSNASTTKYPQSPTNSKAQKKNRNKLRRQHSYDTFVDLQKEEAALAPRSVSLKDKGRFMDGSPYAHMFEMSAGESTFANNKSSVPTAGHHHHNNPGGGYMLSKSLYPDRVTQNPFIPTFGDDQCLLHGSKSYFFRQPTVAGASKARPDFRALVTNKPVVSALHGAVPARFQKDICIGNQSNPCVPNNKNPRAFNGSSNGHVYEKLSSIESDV

Compound	inhibitory rate (10 μM compound concentration)
COc1cnc(C#N)cc1CNC(=O)c1ccc(OC(F)(F)F)cc1 [Example 29, N-[(2-cyano-5-methoxypyridin-4-yl)methyl]-4-(trifluoromethoxy)-bezamide]	92
COc1cnc(C#N)cc1CNC(=O)c1ccc(C(F)(F)F)c(F)c1 [Example 30, N-[(2-cyano-5-methoxypyridin-4-yl)methyl]-3-fluoro-4-(trifluoromethyl)-bezamide]	87

Same assay, conditions: 10 μM final compound concentration; 30 μM glutamic acid and 30 μM glycine; HEK293 cells expressing GRIN1 and GRIN2B; Fluo-4 fluorescence; read-out: inhibitory rate (10 μM compound concentration)

inhibition at 10 µM	Compound
86%	N#Cc1ccc(Br)c(CNC(=O)c2ccc(OC(F)(F)F)c(F)c2)c1 [Example 1, N-[(2-bromo-5-cyanophenyl)methyl]-3-fluoro-4-(trifluoromethoxy)benzamide]
92%	N#Cc1ccc(Br)c(CNC(=O)c2cnc(OC(F)F)c(F)c2)c1 [Example 2, N-[(2-bromo-5-cyanophenyl)methyl]-6-(difluoromethoxy)-5-fluoropyridine-3-carboxamide]
93%	N#Cc1ccc(Br)c(CNC(=O)c2ccc(OC(F)F)c(F)c2)c1 [Example 3, N-[(2-bromo-5-cyanophenyl)methyl]-4-(difluoromethoxy)-3-fluorobenzamide]
94%	N#Cc1ccc(C2CC2)c(CNC(=O)c2ccc(OC(F)(F)F)c(F)c2)c1 [Example 4, N-[(5-cyano-2-cyclopropylphenyl)-methyl]-3-fluoro-4 (trifluoromethoxy)-benzamide]
95%	N#Cc1ccc(C2CC2)c(CNC(=O)c2cnc(OC(F)F)c(F)c2)c1 [Example 5, N-[(5-cyano-2-cyclopropylphenyl)-methyl]-6-(difluoromethoxy)-5-fluoropyridine-3-carboxamide]
93%	N#Cc1ccc(C2CC2)c(CNC(=O)c2ccc(OC(F)F)c(F)c2)c1 [Example 6, N-[(5-cyano-2-cyclopropylphenyl)-methyl]-4-(difluoromethoxy)-3-fluorobenzamide]
94%	COc1ccc(C#N)cc1CNC(=O)c1cnc(OC(F)F)c(F)c1 [Example 7, N-[(5-cyano-2-methoxyphenyl)methyl]-6-(difluoromethoxy)-5-fluoropyridine-3-carboxamide]
83%	Cc1ccc(C#N)cc1CNC(=O)c1cnc(OC(F)F)c(F)c1 [Example 8, N-[(5-cyano-2-methylphenyl)-methyl]-6-(difluoromethoxy)-5-fluoropyridine-3-carboxamide]
95%	COc1ccc(C#N)cc1CNC(=O)c1ccc(OC(F)F)c(F)c1 [Example 10, N-[(5-cyano-2-methoxyphenyl)-methyl]-4-(difluoromethoxy)-3-fluorobenzamide]
96%	COc1ccc(C#N)cc1CNC(=O)c1ccc(OC(F)(F)F)c(F)c1 [Example 11, N-[(5-cyano-2-methoxyphenyl)-methyl]-3-fluoro-4-(trifluoromethoxy)-benzamide]
91%	N#Cc1ccc(F)c(CNC(=O)c2cnc(OC(F)F)c(F)c2)c1 [Example 12, N-[(5-cyano-2-fluorophenyl)methyl]-6-(difluoromethoxy)-5-fluoropyridine-3-carboxamide]
93%	N#Cc1ccc(OCC(F)(F)F)c(CNC(=O)c2cnc(OC(F)F)c(F)c2)c1 [Example 13, N-{[5-cyano-2-(2,2,2-trifluoroethoxy)-phenyl]-methyl}-6-(difluoromethoxy)-5-fluoropyridine-3-carboxamide]
92%	N#Cc1ccc(OCC(F)F)c(CNC(=O)c2cnc(OC(F)F)c(F)c2)c1 [Example 14, N-{[5-cyano-2-(2,2-difluoroethoxy)-phenyl]-methyl}-6-(difluoromethoxy)-5-fluoropyridine-3-carboxamide]
89%	COc1c(C#N)ccc(F)c1CNC(=O)c1cnc(OC(F)F)c(F)c1 [Example 15, N-[(3-cyano-6-fluoro-2-methoxyphenyl)-methyl]-(difluoromethoxy)-5-fluoropyridine-3-carboxamide]
94%	COc1ncc(C#N)cc1CNC(=O)c1ccc(C(F)(F)F)s1 [Example 16, N-[(5-cyano-2-methoxypyridin-3-yl)methyl]-5-(trifluoromethyl)thiophene-2-carboxamide]
66%	Cc1c(C#N)ccc(F)c1CNC(=O)c1cnc(OC(F)F)c(F)c1 [Example 18, N-[(3-cyano-6-fluoro-2-methylphenyl)-methyl]-6-(difluoromethoxy)-5-fluoropyridine-3-carboxamide]
89%	COc1ccc(C#N)nc1CNC(=O)c1cnc(OC(F)F)c(F)c1 [Example 19, N-[(6-cyano-3-methoxypyridin-2-yl)methyl]-6-(difluoromethoxy)-5-fluoropyridine-3-carboxamide]
97%	COc1c(F)cc(C#N)cc1CNC(=O)c1cnc(OC(F)F)c(F)c1 [Example 20, N-[(5-cyano-3-fluoro-2-methoxyphenyl)-methyl]-6-(difluoromethoxy)-5-fluoropyridine-3-carboxamide]
94%	COc1ncc(C(=O)NCc2cc(C#N)cc(F)c2OC)cc1F [Example 21, N-[(5-cyano-3-fluoro-2-methoxyphenyl)-methyl]-5-fluoro-6-methoxypyridine-3-carboxamide]
94%	COc1cnc(C#N)c(F)c1CNC(=O)c1cnc(OC(F)F)c(F)c1 [Example 22, N-[(2-cyano-3-fluoro-5-methoxypyridin-4-yl)methyl]-6-(difluoromethoxy)-5-fluoropyridine-3-carboxamide]
98%	COc1cc(F)c(C#N)cc1CNC(=O)c1cnc(OC(F)F)c(F)c1 [Example 23, N-[(5-cyano-4-fluoro-2-methoxyphenyl)-methyl]-6-(difluoromethoxy)-5-fluoropyridine-3-carboxamide]
97%	COc1cc(C#N)cc(CNC(=O)c2cnc(OC(F)F)c(F)c2)c1 [Example 24, N-[(3-cyano-5-methoxyphenyl)-methyl]-6-(difluoromethoxy)-5-fluoropyridine-3-carboxamide]
89%	COc1cc(C#N)cc(CNC(=O)c2cnc(OC(F)F)c(F)c2)c1F [Example 25, N-[(5-cyano-2-fluoro-3-methoxyphenyl)-methyl]-6-(difluoromethoxy)-5-fluoropyridine-3-carboxamide]
75%	COc1cc(C#N)cc(CNC(=O)c2cnc(OC)c(F)c2)c1F [Example 26, N-[(5-cyano-2-fluoro-3-methoxyphenyl)-methyl]-5-fluoro-6-methoxypyridine-3-carboxamide]
77%	COc1c(CNC(=O)c2cnc(OC(F)F)c(F)c2)cc(C#N)nc1C [Example 27, N-[(6-cyano-3-methoxy-2-methyl-pyridin-4-yl)methyl]-6-(difluoromethoxy)-5-fluoropyridine-3-carboxamide]
91%	COc1cnc(C#N)cc1CNC(=O)c1cnc(OC(F)F)c(F)c1 [Example 28, N-[(2-cyano-5-methoxypyridin-4-yl)methyl]-6-(difluoromethoxy)-5-fluoropyridine-3-carboxamide]

Test system: not given
Assay: not given
Conditions: rodents; cited from earlier work

Compound	number of occurrence and depth of cortical spreading depression
C[C@@H](CN1CCC(Cc2ccccc2)CC1)[C@@H](O)c1ccc(O)cc1 [Ro25-6981]	suppress the number of occurrence and the depth of cortical spreading depression
